This assay concerns the target T1, KCNQ2/3 channels (Homo sapiens, UniProt O43525+O43526).
T1 construct: expressed in transfected cells
Kind of assay: Fluorescence assay using a voltage sensitive dye (fluorimetry). The assay is classed as cell-based. The conditions noted are these: CHO-K1 cells expressing KCNQ2/3 channels; for EC50: agonistic activity; for Fluorimetry % efficacy (retigabine 50 μM = 100%) / Emax: retigabine 50 μM = 100%; for Emax: read-out: Fluorimetry % efficacy (retigabine 50 μM = 100%). As to the method: Pharmacological Experiments Fluorescence Assay Using a Voltage Sensitive Dye
Human CHO-K1 cells expressing KCNQ2/3 channels are cultivated adherently at 37° C., 5% CO2 and 95% humidity in cell culture bottles (e.g. 80 cm^2 TC flasks, Nunc) with DMEM-high glucose (Sigma Aldrich, D7777) including 10% FCS (PAN Biotech, e.g. 3302-P270521) or alternatively MEM Alpha Medium (1×, liquid, Invitrogen, #22571), 10% fetal calf serum (FCS) (Invitrogen, #10270-106, heat-inactivated) and the necessary selection antibiotics.
Before being sown out for the measurements, the cells are washed with a 1×DPBS buffer without Ca^2+/Mg^2+ (e.g. Invitrogen, #14190-094) and detached from the bottom of the culture vessel by means of Accutase (PAA Laboratories, #L11-007) (incubation with Accutase for 15 min at 37° C.). The cell count then present is determined using a CASY™ cell counter (TCC model, Schärfe System) in order subsequently to apply, depending on the density optimization for the individual cell line, 20,000-30,000 cells/well/100 μl of the described nutrient medium to 96-well measuring plates of the Corning™ CellBIND™ type (Flat Clear Bottom Black Polystyrene Microplates, #3340). Incubation is then carried out for one hour at room temperature, without gassing or adjusting the humidity, followed by incubation for 24 hours at 37° C., 5% CO2 and 95% humidity.
The voltage-sensitive fluorescent dye from the Membrane Potential Assay Kit (Red™ Bulk format part R8123 for FLIPR, MDS Analytical Technologies™) is prepared by dissolving the contents of a vessel Membrane Potential Assay Kit Red Component A in 200 ml of extracellular buffer (ES buffer, 120 mM NaCl, 1 mM KCl, 10 mM HEPES, 2 mM CaCl2, 2 mM MgCl2, 10 mM glucose; pH 7.4). After removal of the nutrient medium, the cells are washed with 200 μl of ES buffer, then covered with a layer of 100 μl of the dye solution prepared above and incubated for 45 min at room temperature with the exclusion of light.
The fluorescence measurements are carried out with a BMG Labtech FLUOstar™ BMG Labtech NOVOstar™ or BMG Labtech POLARstar™ instrument (525 nm excitation, 560 nm emission, Bottom Read mode). After incubation of the dye, 50 μl of the test substances in the desired concentrations, or 50 μl of ES buffer for control purposes, are introduced into separate cavities of the measuring plate and incubated for 30 min at room temperature while being shielded from light. The fluorescence intensity of the dye is then measured for 5 min and the fluorescence value F1 of each well is thus determined at a given, constant time. 15 μl of a […] KCl solution ([…]) are then added to each well. The change in fluorescence is subsequently measured until all the relevant measured values have been obtained (mainly 5-30 min). At a given time after KCl application, a fluorescence value F2 is determined, in this case at the time of the fluorescence peak.
For calculation, the fluorescence intensity F2 is compared with the fluorescence intensity F1, and the agonistic activity of the target compound on the potassium channel is determined therefrom. F2 and F1 are calculated as follows: […]
In order to determine whether a substance has agonistic activity,
A substance has an agonistic activity on the potassium channel when
[formula] it is possible to conclude that a target compound has agonistic activity if an increase in
[formula] is to be observed as the dosage of the target compound increases.
Calculations of EC50 values are carried out with the aid of ‘Prism v4.0’ software (GraphPad Software™).

A word on the EC50: it is the midpoint of the concentration-response curve. Read a low EC50 as greater potency. Turning to `O=C(NCc1cccs1)c1cccnc1SCCCc1ccccc1` [compound 1], a half-maximal response (EC50) required 170 nM and the “Fluorimetry % efficacy (retigabine 50 μM = 100%)” value (shortened to “Fluorimetry % efficacy”) was 132%.
For `O=C(NCc1cccs1)c1cccnc1SCCCC1CCCCC1` [compound 2, 2-(3-Cyclohexyl-propylsulfanyl)-N-(thiophen-2-yl-methyl)-pyridine-3-carboxylic acid amide], the EC50 amounted to 1350 nM and the Emax is 97%.
For `O=C(CCSc1ncccc1C(=O)NCc1cccs1)c1ccccc1` [compound 3], the “Fluorimetry % efficacy” value is 53%.
In the case of `O=C(NCc1cccs1)c1cccnc1SCCOc1cccc(C(F)(F)F)c1` [compound 4, N-(Thiophen-2-yl-methyl)-2-[2-[3-(trifluoromethyl)-phenoxy]-ethylsulfanyl]-pyridine-3-carboxylic acid amide], it took 772 nM to reach a half-maximal effect (EC50) and the Emax was found to be 126%.
Regarding `CC(C)CCCSc1ncccc1C(=O)NCc1cccs1` [compound 5, 2-(4-Methyl-pentylsulfanyl)-N-(thiophen-2-yl-methyl)-pyridine-3-carboxylic acid amide], the 50% effective concentration (EC50) was determined as 435 nM and the Emax was determined as 161%.
Turning to `O=C(NCc1cccs1)c1cccnc1CCCCc1ccccc1` [compound 7, 2-(4-Phenyl-butyl)-N-(thiophen-2-yl-methyl)-pyridine-3-carboxylic acid amide], the Emax was 91%.
Take `O=C(NCC1CCCCC1)c1cccnc1CCCS(=O)(=O)c1ccccc1` [compound 8, 2-[3-(Benzenesulfonyl)-propyl]-N-(cyclohexyl-methyl)-pyridine-3-carboxylic acid amide]: the Emax came out at 37%.
Take `O=C(NCC1CCCCC1)c1cccnc1CCCCc1ccccc1` [compound 9, N-(Cyclohexyl-methyl)-2-(4-phenyl-butyl)-pyridine-3-carboxylic acid amide]: the EC50 came to 1350 nM and the Emax was found to be 157%.
On to `O=C(NCc1cccs1)c1cccnc1CCCS(=O)(=O)c1ccccc1` [compound 10, 2-[3-(Benzenesulfonyl)-propyl]-N-(thiophen-2-yl-methyl)-pyridine-3-carboxylic acid amide], for which the Emax turned out to be 13%.
For the compound `O=C(NCc1cccs1)c1cccnc1CCCS(=O)(=O)c1cccc(C(F)(F)F)c1` [compound 12, N-(Thiophen-2-yl-methyl)-2-[3-[[3-(trifluoromethyl)phenyl]sulfonyl]-propyl]-pyridine-3-carboxylic acid amide], a half-maximal effect (EC50) was put at 2920 nM and the Emax stood at 170%.
For `O=C(NCc1cccs1)c1cccnc1CCCSc1cccc(C(F)(F)F)c1` [compound 13], the EC50 was 302 nM and the “Fluorimetry % efficacy” value is 200%.
Take `CC(CSc1ncccc1C(=O)NCc1cccs1)Sc1ccccc1` (centres unmarked) [compound 16]: the EC50 came to 74 nM and the Emax was found to be 176%.
On to `O=C(NCc1cccs1)c1cccnc1SCCCc1ccc(F)cc1` [compound 17], for which the EC50 came to 128 nM and the “Fluorimetry % efficacy” value is given as 176%.
Regarding `O=C(NCc1cccs1)c1cccnc1SCCCc1cccc(C(F)(F)F)c1` [compound 18, N-(Thiophen-2-yl-methyl)-2-[3-[3-(trifluoromethyl)phenyl]-propylsulfanyl]-pyridine-3-carboxylic acid amide], the response was half-maximal at 111 nM (EC50) and the Emax was 160%.
The matching figures for `CC(CSc1ncccc1C(=O)NCc1cccs1)Sc1ccc(F)cc1` (centres unmarked) [compound 19, 2-[2-[(4-Fluorophenyl)sulfanyl]-propylsulfanyl]-N-(thiophen-2-yl-methyl)-pyridine-3-carboxylic acid amide]: 37 nM and 171%.
For `CC(CSc1ncccc1C(=O)NCc1cccs1)Sc1cccc(C(F)(F)F)c1` (centres unmarked) [compound 20, N-(Thiophen-2-yl-methyl)-2-[2-[[3-(trifluoromethyl)phenyl]sulfanyl]-propylsulfanyl]-pyridine-3-carboxylic acid amide], the EC50 was 49 nM and the Emax came out at 174%.
With `O=C(NCc1cccs1)c1cccnc1CCCCc1cccc(C(F)(F)F)c1` [compound 21], a half-maximal effect (EC50) was put at 364 nM and the “Fluorimetry % efficacy” value was 126%.
With `O=C(NCc1cccs1)c1cccnc1CCCCc1ccc(F)cc1` [compound 22, 2-[4-(4-Fluorophenyl)-butyl]-N-(thiophen-2-yl-methyl)-pyridine-3-carboxylic acid amide], the EC50 came to 2350 nM and the Emax worked out at 150%.
In the case of `O=C(NCc1cccs1)c1cccnc1CCCSc1ccccc1` [compound 23, 2-(3-Phenylsulfanyl-propyl)-N-(thiophen-2-yl-methyl)-pyridine-3-carboxylic acid amide], a half-maximal response (EC50) required 3770 nM and the Emax came to 163%.
In the case of `CC(CSc1ccccc1)Sc1ncccc1C(=O)NCc1cccs1` (centres unmarked) [compound 24, 2-[(1-Methyl-2-phenylsulfanyl-ethyl)sulfanyl]-N-(thiophen-2-yl-methyl)-pyridine-3-carboxylic acid amide], the EC50 came to 11 nM and the Emax amounted to 122%.
The like results for `O=C(NCC1CCCCCC1)c1cccnc1CCCCc1cccc(C(F)(F)F)c1` [compound 25, N-(Cycloheptyl-methyl)-2-[4-[3-(trifluoromethyl)phenyl]-butyl]-pyridine-3-carboxylic acid amide] were, in that order, 1020 nM and 216%.
For `O=C(NCC1CC2CCC1C2)c1cccnc1CCCCc1cccc(C(F)(F)F)c1` (centres unmarked) [compound 26, N-(5-Bicyclo[2.2.1]heptanyl-methyl)-2-[4-[3-(trifluoromethyl)phenyl]-butyl]-pyridine-3-carboxylic acid amide], the EC50 is 126 nM and the Emax stood at 244%.
The like results for `CC(C)CCCSc1ncccc1C(=O)NCC1CC2CCC1C2` (centres unmarked) [compound 28, N-(5-Bicyclo[2.2.1]heptanyl-methyl)-2-(4-methyl-pentylsulfanyl)-pyridine-3-carboxylic acid amide] were, in that order, 1570 nM and 192%.
For `O=C(NCC1CCCCCC1)c1cccnc1CCCSc1ccc(F)cc1` [compound 29, N-(Cycloheptyl-methyl)-2-[3-[(4-fluorophenyl)sulfanyl]-propyl]-pyridine-3-carboxylic acid amide], it took 275 nM to reach a half-maximal effect (EC50) and the Emax stood at 159%.
With `O=C(NCC1CC2CCC1C2)c1cccnc1CCCSc1ccc(F)cc1` (centres unmarked) [compound 30, N-(5-Bicyclo[2.2.1]heptanyl-methyl)-2-[3-[(4-fluorophenyl)sulfanyl]-propyl]-pyridine-3-carboxylic acid amide], the EC50 was found to be 630 nM and the Emax came to 261%.
`O=C(NCC1CCCCCC1)c1cccnc1CCCS(=O)(=O)c1cccc(C(F)(F)F)c1` [compound 31, N-(Cycloheptyl-methyl)-2-[3-[[3-(trifluoromethyl)phenyl]sulfonyl]-propyl]-pyridine-3-carboxylic acid amide]: the EC50 was 437 nM and the Emax came out at 98%.
Consider `O=C(NCC1CC2CCC1C2)c1cccnc1CCCS(=O)(=O)c1cccc(C(F)(F)F)c1` (centres unmarked) [compound 32, N-(5-Bicyclo[2.2.1]heptanyl-methyl)-2-[3-[[3-(trifluoromethyl)phenyl]sulfonyl]-propyl]-pyridine-3-carboxylic acid amide], for which a half-maximal response (EC50) required 3130 nM and the Emax is 191%.

These data come from patent US8586755B2, “Substituted nicotinamides as KCNQ2/3 modulators” (Grünenthal GmbH, priority 2009, dated 2013).
